Earlier results as cited in patent US20010046957A1, “Method for treating hepatitis C” (priority 1999, published 2001).

Columns and labels:
HCV [1] = test system: HCV
[2] = patients treated at currently recommended doses
HCV [3] = conditions: patients with CHC virus infection following liver transplant, after initiation of MMF therapy for rejection; anecdotal report (Platz KP)
yellow fever virus = conditions: (Neyts J)
[4] = in vivo

IFN-α
sustained response (HCV [1]; IFN-α monotherapy, general CHC populations (Fried M)): 5-20%

NC(=O)c1ncn([C@@H]2O[C@H](CO)[C@@H](O)[C@H]2O)n1 [Ribavirin, 1-β-D-ribofuranosyl-1 H-1 ,2,-4-triazole-3-carboxamide]
improvement of sustained virological response rates over IFN-α monotherapy (HCV [1]; ribavirin combined with IFNα, CHC (Lai MY; Reichard O)): approximately 2 fold | end of treatment virological response (HCV [1]; ribavirin combined with a pegylated form of IFN-α2A, small pilot study of safety (Sulkowski M.)): 70% | sustained loss of detectable virus (HCV [1]; ribavirin plus IFNα regimen, treated patients (McHutchison JG)): 30 - 40% | significant hemolysis, patients affected [2]: 10-20%

COc1c(C)c2c(c(O)c1C/C=C(\C)CCC(=O)OCCN1CCOCC1)C(=O)OC2 [MMF, mycophenolate mofetil]
serum HCV RNA levels (HCV [3]): decrease in some patients | antiviral activity (yellow fever virus): antiviral activity

Mycophenolic acid [MPA]
bioavailability [4]: limited
